Data reported in ChEMBL document CHEMBL3885881, “DrugMatrix”.

Organism: Rattus norvegicus
Test: DrugMatrix - Regimen: Daily Repeat
Assay type: toxicity, organism-based, Sprague-Dawley
Parameters: regimen Daily Repeat, gender Male, age 6-8 weeks
Details: in vivo, sc, route subcutaneous, […]; for ABSOLUTE BASOPHIL / ABSOLUTE EOSINOPHIL / ABSOLUTE LYMPHOCYTE / ABSOLUTE MONOCYTE / ABSOLUTE SEGMENTED NEUTROPHIL / BASOPHIL / EOSINOPHIL / ERYTHROCYTE COUNT / HEMATOCRIT / HEMOGLOBIN / LEUKOCYTE COUNT / LYMPHOCYTE / MEAN CORPUSCULAR HEMOGLOBIN / MEAN CORPUSCULAR HEMOGLOBIN CONCENTRATION / MEAN CORPUSCULAR VOLUME / MONOCYTE / NEUTROPHIL / NUCLEATED RED BLOOD CELLS / PLATELET COUNT: tissue Blood; for ALANINE AMINOTRANSFERASE / ALBUMIN / ALKALINE PHOSPHATASE / ASPARTATE AMINOTRANSFERASE / BLOOD UREA NITROGEN / CARBON DIOXIDE / CHLORIDE / CHOLESTEROL / CREATINE PHOSPHOKINASE / CREATININE / GLUCOSE / LACTATE DEHYDROGENASE / LIPASE / PHOSPHORUS / POTASSIUM / SODIUM / TOTAL BILIRUBIN / TOTAL PROTEIN / URIC ACID: tissue Plasma
[1] = 0 mg/kg, 72 h, dose level Control, time 3 day
[2] = 0 mg/kg, 120 h, dose level Control, time 5 day
[3] = 18 mg/kg, 72 h, dose level High, time 3 day

CN(C)c1ccc(C(=C2C=CC(=[N+](C)C)C=C2)c2ccc(N(C)C)cc2)cc1.[Cl-] [GENTIAN VIOLET]
ABSOLUTE BASOPHIL [1]: 0 CELLS/uL
ABSOLUTE EOSINOPHIL [1]: 92.33 CELLS/uL
ABSOLUTE LYMPHOCYTE [1]: 12247.5 CELLS/uL
ABSOLUTE MONOCYTE [1]: 389.67 CELLS/uL
ABSOLUTE SEGMENTED NEUTROPHIL [1]: 1320.5 CELLS/uL
BASOPHIL [1]: 0%
EOSINOPHIL [1]: 0.67%
ERYTHROCYTE COUNT [1]: 5.45 x10E6/uL
HEMATOCRIT [1]: 34.85%
HEMOGLOBIN [1]: 12.97 G/DL
LEUKOCYTE COUNT [1]: 14.05 x10E3/uL
LYMPHOCYTE [1]: 87.33%
MEAN CORPUSCULAR HEMOGLOBIN [1]: 23.78 pg
MEAN CORPUSCULAR HEMOGLOBIN CONCENTRATION [1]: 37.22 G/DL
MEAN CORPUSCULAR VOLUME [1]: 63.93 fL
MONOCYTE [1]: 2.67%
NEUTROPHIL [1]: 9.33%
NUCLEATED RED BLOOD CELLS [1]: 0 /100WBC
PLATELET COUNT [1]: 1174 x10E3/uL
ALANINE AMINOTRANSFERASE [1]: 48.83 u/L
ALBUMIN [1]: 4.23 G/DL
ALKALINE PHOSPHATASE [1]: 351.5 u/L
ASPARTATE AMINOTRANSFERASE [1]: 90 u/L
BLOOD UREA NITROGEN [1]: 15.33 mg/dL
CARBON DIOXIDE [1]: 23 mmol/L
CHLORIDE [1]: 103.5 MEQ/L
CHOLESTEROL [1]: 70.5 mg/dL
CREATINE PHOSPHOKINASE [1]: 651.83 u/L
CREATININE [1]: 0.22 mg/dL
GLUCOSE [1]: 180.67 mg/dL
LACTATE DEHYDROGENASE [1]: 165 u/L
LIPASE [1]: 9.33 u/L
PHOSPHORUS [1]: 12.03 mg/dL
POTASSIUM [1]: 6.17 MEQ/L
SODIUM [1]: 142.62 MEQ/L
TOTAL BILIRUBIN [1]: 0.2 mg/dL
TOTAL PROTEIN [1]: 5.73 G/DL
URIC ACID [1]: 1.77 mg/dL
ABSOLUTE BASOPHIL [2]: 0 CELLS/uL
ABSOLUTE EOSINOPHIL [2]: 0 CELLS/uL
ABSOLUTE LYMPHOCYTE [2]: 12736.67 CELLS/uL
ABSOLUTE MONOCYTE [2]: 253.5 CELLS/uL
ABSOLUTE SEGMENTED NEUTROPHIL [2]: 1193.17 CELLS/uL
BASOPHIL [2]: 0%
EOSINOPHIL [2]: 0%
ERYTHROCYTE COUNT [2]: 5.72 x10E6/uL
HEMATOCRIT [2]: 36.05%
HEMOGLOBIN [2]: 13.62 G/DL
LEUKOCYTE COUNT [2]: 14.18 x10E3/uL
LYMPHOCYTE [2]: 89.33%
MEAN CORPUSCULAR HEMOGLOBIN [2]: 23.83 pg
MEAN CORPUSCULAR HEMOGLOBIN CONCENTRATION [2]: 37.8 G/DL
MEAN CORPUSCULAR VOLUME [2]: 63.05 fL
MONOCYTE [2]: 1.83%
NEUTROPHIL [2]: 8.83%
NUCLEATED RED BLOOD CELLS [2]: 0 /100WBC
PLATELET COUNT [2]: 1322.17 x10E3/uL
ALANINE AMINOTRANSFERASE [2]: 48.83 u/L
ALBUMIN [2]: 4.27 G/DL
ALKALINE PHOSPHATASE [2]: 295.17 u/L
ASPARTATE AMINOTRANSFERASE [2]: 75.83 u/L
BLOOD UREA NITROGEN [2]: 15.5 mg/dL
CARBON DIOXIDE [2]: 30.5 mmol/L
CHLORIDE [2]: 102.33 MEQ/L
CHOLESTEROL [2]: 76.17 mg/dL
CREATINE PHOSPHOKINASE [2]: 205.5 u/L
CREATININE [2]: 0.2 mg/dL
GLUCOSE [2]: 149.67 mg/dL
LACTATE DEHYDROGENASE [2]: 124.5 u/L
LIPASE [2]: 10 u/L
PHOSPHORUS [2]: 10.93 mg/dL
POTASSIUM [2]: 6.59 MEQ/L
SODIUM [2]: 143.1 MEQ/L
TOTAL BILIRUBIN [2]: 0.2 mg/dL
TOTAL PROTEIN [2]: 6.05 G/DL
URIC ACID [2]: 1.45 mg/dL
ABSOLUTE BASOPHIL [3]: 0 CELLS/uL
ABSOLUTE EOSINOPHIL [3]: 0 CELLS/uL
ABSOLUTE LYMPHOCYTE [3]: 12052.33 CELLS/uL
ABSOLUTE MONOCYTE [3]: 236.33 CELLS/uL
ABSOLUTE SEGMENTED NEUTROPHIL [3]: 1544.67 CELLS/uL
BASOPHIL [3]: 0%
EOSINOPHIL [3]: 0%
ERYTHROCYTE COUNT [3]: 5.45 x10E6/uL
HEMATOCRIT [3]: 33.5%
HEMOGLOBIN [3]: 12.27 G/DL
LEUKOCYTE COUNT [3]: 13.83 x10E3/uL
LYMPHOCYTE [3]: 87%
MEAN CORPUSCULAR HEMOGLOBIN [3]: 22.5 pg
MEAN CORPUSCULAR HEMOGLOBIN CONCENTRATION [3]: 36.67 G/DL
MEAN CORPUSCULAR VOLUME [3]: 61.5 fL
MONOCYTE [3]: 1.67%
NEUTROPHIL [3]: 11.33%
NUCLEATED RED BLOOD CELLS [3]: 0 /100WBC
PLATELET COUNT [3]: 1084 x10E3/uL
ALANINE AMINOTRANSFERASE [3]: 34.67 u/L
ALBUMIN [3]: 2.67 G/DL
ALKALINE PHOSPHATASE [3]: 220 u/L
ASPARTATE AMINOTRANSFERASE [3]: 68.67 u/L
BLOOD UREA NITROGEN [3]: 12 mg/dL
CARBON DIOXIDE [3]: 19 mmol/L
CHLORIDE [3]: 103.5 MEQ/L
CHOLESTEROL [3]: 66.33 mg/dL
CREATINE PHOSPHOKINASE [3]: 157.33 u/L
CREATININE [3]: 0.17 mg/dL
GLUCOSE [3]: 122.33 mg/dL
LACTATE DEHYDROGENASE [3]: 148 u/L
LIPASE [3]: 7.33 u/L
PHOSPHORUS [3]: 8.5 mg/dL
POTASSIUM [3]: 6.06 MEQ/L
SODIUM [3]: 145.95 MEQ/L
TOTAL BILIRUBIN [3]: 0.13 mg/dL
TOTAL PROTEIN [3]: 4.7 G/DL
URIC ACID [3]: 1.1 mg/dL
